Values belong to the compound of their own block, whether it stands above or below them. The star is where a group is joined. AMC = Cc1cc(=O)oc2cc(N*)ccc12
Key:
Assay type in all cases: biochemical
[1] = biological target: T1, interleukin-1β converting enzyme (Homo sapiens, UniProt P29466); test: Coupled fluorometric assay of ICE activity of DEAE-purified THP-1 cell lysate with leucine aminopeptidase (LAPM) (Example 3); parameters: THP-1 cell lysate purified approximately 100-fold using DEAE-anion exchange chromatography; endogenous in cells; host or cells: THP-1 cells (lysate, about 100-fold DEAE-purified); The coupling enzyme LAPM was purchased from Sigma, No. L-0632, and comes from porcine kidney microsomes; details: 25 C
T1 sequence (P29466 120-297 limits assumed): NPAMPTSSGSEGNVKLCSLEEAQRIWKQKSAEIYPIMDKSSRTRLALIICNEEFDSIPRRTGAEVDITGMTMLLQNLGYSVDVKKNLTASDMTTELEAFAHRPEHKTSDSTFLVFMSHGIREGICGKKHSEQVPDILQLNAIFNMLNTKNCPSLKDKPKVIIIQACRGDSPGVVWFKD
T1 sequence (P29466 317-404 limits assumed): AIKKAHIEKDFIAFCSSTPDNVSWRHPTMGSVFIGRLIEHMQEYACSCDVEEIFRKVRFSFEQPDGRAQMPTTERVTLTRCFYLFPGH
Protocol: Coupled Assay: Interleukin 1β activity of Activity of DEAE-purified THP-1 cell lysate.
(§1) Enzyme: THP-1 cell lysate purified approximately 100-fold using DEAE-anion exchange chromatography stock concentration = 5 units/ul (a unit is defined as the amount of enzyme required to produce 1 pmole of AMC/min at 25 degrees using saturating levels of substrate ( = 50 uM).
Coupling Enzyme: Leucine Aminopetidase Microsomal (Type IV) (LAPM) (purified from porcine kidney microsomes) EC 3.4.11.2 Sigma No. L-0632 12.5 units/ml stock solution in DMSO
Substrate: Ac-Tyr-Val-Ala-Asp-Gly-AMC 5 mM stock solution in DMSO
(§2) Buffer: 100 mM Hepes 10% sucrose 0.1% Chaps 1 mM DTT 1 mg/ml BSA pH 7.5
At 25 C, 5µl of substrate 50 µl of LAPM, 5µl of ICE were added to 440 µl of buffer. Reaction is monitored continuously in a Gilford Fluoro-IV Spectrofluorometer. excitation wavelength = 380 nm emission wavelength = 460 nm 1 uM AMC = 100% relative fluoroescence

[2] = biological target: T1, interleukin-1β converting enzyme; test: Direct spectrophotometric assay of ICE activity of DEAE-purified THP-1 cell lysate (Example 2); parameters: THP-1 cell lysate purified approximately 100-fold using DEAE-anion exchange chromatography; endogenous in cells; host or cells: THP-1 cells (lysate, about 100-fold DEAE-purified); details: 25 °C, pH 7.5
Protocol: as §1, with “Direct Assay: Interleukin 1β activity of Activity of DEAE-purified THP-1 cell lysate. Enzyme:” for “Enzyme:”, “p-NA/min” for “AMC/min”, “substrate. p-NA is para-nitroanaline.” for “substrate ( = 50 uM).”
Substrate: Ac-Tyr-Val-Ala-Asp-p-NA 5 mM stock solution in DMSO
as §2
At 25 ° C, […] of Buffer as defined above.
Reaction is monitored continuously in a Cary 219 spectrophotometer at a wavelength of 410 nm. Results: The rate of the reaction under these conditions is 0.005 absorbance units/min, corresponding to 0.5 uM pNA produced/min.

[3] = biological target: T1, interleukin-1β converting enzyme; test: Direct fluorometric assay of ICE activity of DEAE-purified THP-1 cell lysate in the presence of an enzyme inhibitor (Example 1B); parameters: THP-1 cell lysate purified approximately 100-fold using DEAE-anion exchange chromatography; endogenous in cells; host or cells: THP-1 cells (lysate, about 100-fold DEAE-purified); details: 25 °C
Protocol: Direct Assay: Interleukin 1β activity of Activity of DEAE-purified THP-1 cell lysate in the presence of an enzyme inhibitor.
(§3) Enzyme: THP-1 cell lysate purified approximately 100-fold using DEAE-anion exchange chromatography stock concentration = 5 units/ul (a unit is defined as the amount of enzyme required to produce 1 pmole of AMC/min at 25 degrees using saturating levels of substrate (> = 50 µM).
Substrate: Ac-Tyr-Val-Ala-Asp-AMC 5 mM stock solution in DMSO
as §2
Sample: compound Z (i.e. N-(N-acetyl-tyrosinylvalinyl-alaninyl)-3-amino-4-oxo butanoic acid) 2µM in H20
At 25 ° C, 5µl of substrate 5µl of enzyme and 5µl of sample were added to 485 µl of Buffer as defined above.
Liberation of AMC was monitored using a Gilford Fluoro IV Spectrofluorometer using an excitation wavelength of 380 nm and an emmission wavelength of 460nm. 1µM AMC = 100% relative fluoroscence.

[4] = biological target: T1, interleukin-1β converting enzyme; test: Direct fluorometric assay of ICE activity of DEAE-purified THP-1 cell lysate (Example 1A); parameters: THP-1 cell lysate purified approximately 100-fold using DEAE-anion exchange chromatography; endogenous in cells; host or cells: THP-1 cells (lysate, about 100-fold DEAE-purified); details: substrate cleavage, 25 °C, pH 7.5, 5 µl of 5 mM substrate and 5 µl enzyme (5 units/ul) in 490 µl buffer
Protocol: Direct Assay: Interleukin 1β activity of Activity of DEAE-purified THP-1 cell lysate.
as §3
Substrate: N-(N-Acetyl-Tyrosinyl)-Valinyl-alaninylaspartic acid 7-amino-4-methylcoumarin amide (i.e. Ac-Tyr-Val-Ala-Asp-AMC) 5 mM stock solution in DMSO
Buffer: 100 mM Hepes 10% sucrose 0.1% Chaps 1 mM DTT 1 mg/ml BSA pH 7.5 At 25 ° C, 5µl of substrate and 5µl of enzyme was added to 490 µl of Buffer as defined above.
Liberation of 7-Amino-4-methylcoumarin (AMC) was monitored using a Gilford Fluoro IV Spectrofluorometer using an excitation wavelength of 380 nm and an emmission wavelength of 460nm. 1µM AMC = 100% relative fluoroscence.

[5] = 5 µl of sample 2µM in 500 µl, substrate Ac-Tyr-Val-Ala-Asp-AMC

Compound: N-(N-Acetyl-tyrosinyl-valinyl-alaninyl-aspartylglycinyl)-7-amino-4-methylcoumarin (Ac-YVADG-{AMC}; SMILES CC(=O)N[C@@H](Cc1ccc(O)cc1)C(=O)N[C@H](C(=O)N[C@@H](C)C(=O)N[C@@H](CC(=O)O)C(=O)NCC(=O)Nc1ccc2c(C)cc(=O)oc2c1)C(C)C) [Ac-Tyr-Val-Ala-Asp-Gly-AMC]
time required to reach 99% of the steady state of the ICE reaction ([1]; 7 x t 1/2, coupled assay with LAPM): 11 min | velocity of the steady state reaction ([1]; coupled assay with LAPM, 5 µl of 5 mM substrate, 5 µl ICE in 500 µl, pH 7.5): 0.05 uM AMC/min | rate constant that describes the approach to steady state ([1]; lag phase, determined by the amount of coupling enzyme (50 µl LAPM, 12.5 units/ml stock)): 0.44 + 0.01 min -1

rate of the reaction (pNA produced) ([2]; corresponding to the absorbance rate at 410 nm): 0.5 uM pNA produced/min | rate of the reaction ([2]; substrate cleavage monitored at 410 nm, 5 mM substrate stock): 0.005 absorbance units/min
Compound: CC(=O)N[C@@H](Cc1ccc(O)cc1)C(=O)N[C@H](C(=O)N[C@@H](C)C(=O)N[C@@H](CC(=O)O)C(=O)Nc1ccc([N+](=O)[O-])cc1)C(C)C [Ac-Tyr-Val-Ala-Asp-p-NA]

half-life for the slow onset of inhibition [3, 5]: 2.7 min | rate constant for inhibition [3, 5]: 0.25 min-^1 | inhibition ([3]; slow onset of inhibition, value eventually approached, 5 µl of sample 2µM in 500 µl): ~100% | kind of inhibition ([3]; substrate Ac-Tyr-Val-Ala-Asp-AMC, 5 µl of sample 2µM in H2O in 500 µl, pH 7.5): slow, tight-binding inhibitor
Compound: N-(N-acetyl-tyrosinylvalinyl-alaninyl)-3-amino-4-oxo butanoic acid [Compound Z]

rate [4]: 0.005 mM AMC/min | 100% relative fluoroscence achieved in ([4]; 1µM AMC = 100% relative fluorescence): 20 min | initial velocity ([3]; uninhibited initial velocity of substrate cleavage in the presence of compound Z, pH 7.5): 0.05 uM AMC produced/min
Compound: CC(=O)N[C@@H](Cc1ccc(O)cc1)C(=O)N[C@H](C(=O)N[C@@H](C)C(=O)N[C@@H](CC(=O)O)C(=O)Nc1ccc2c(C)cc(=O)oc2c1)C(C)C [Ac-Tyr-Val-Ala-Asp-AMC, N-(N-Acetyl-tyrosinyl-valinyl-alaninyl)-aspartic acid a-7-amino-4-methylcoumarin amide]

From EP0533226A2, “Novel chromophore containing compounds” (MERCK & CO. INC., priority 1991, dated 1993)
